Experimental data published in US12655175B2, “C17, C20, and C21 substituted neuroactive steroids and their methods of use” (Sage Therapeutics, LLC, priority 2016, dated 2026).

molecular target: GABAA receptor; assay: Steroid inhibition of [35S]-TBPS binding; details: rat brain cortical membranes, 3 nM [35S]-TBPS, in the presence of 5 mM GABA
Description: Steroid Inhibition of TBPS Binding
Briefly, cortices are rapidly removed following decapitation of carbon dioxide-anesthetized Sprague-Dawley rats ([…]). The cortices are homogenized in 10 volumes of ice-cold 0.32 M sucrose using a glass/teflon homogenizer and centrifuged at 1500×g for 10 min at 4° C. The resultant supernatants are centrifuged at 10,000×g for 20 min at 4° C. to obtain the P2 pellets. The P2 pellets are resuspended in 200 mM NaCl/50 mM Na—K phosphate pH 7.4 buffer and centrifuged at 10,000×g for 10 min at 4° C. This washing procedure is repeated twice and the pellets are resuspended in 10 volumes of buffer. Aliquots ([…]) of the membrane suspensions are incubated with 3 nM [^35S]-TBPS and […] aliquots of test drug dissolved in dimethyl sulfoxide (DMSO) (final 0.5%) in the presence of 5 mM GABA. The incubation is brought to a final volume of 1.0 mL with buffer. […] Following a 90 min incubation at room temp, the assays are terminated by filtration through glass fiber filters (Schleicher and Schuell No. 32) using a cell harvester (Brandel) and rinsed three times with ice-cold buffer. Filter bound radioactivity is measured by liquid scintillation spectrometry. Non-linear curve fitting of the overall data for each drug averaged for each concentration is done using Prism (GraphPad).
Various compounds are or can be screened to determine their potential as modulators of [^35S]-TBPS binding in vitro. These assays are or can be performed in accordance with the above discussed procedures.

`CN(c1ccccc1)[C@H]1CC[C@H]2[C@@H]3CC[C@H]4C[C@](C)(O)CC[C@]4(C)[C@H]3CC[C@]12C` [Compound 88] and `CN([C@H]1CC[C@H]2[C@@H]3CC[C@H]4C[C@](C)(O)CC[C@]4(C)[C@H]3CC[C@]12C)S(=O)(=O)c1ccccc1` [Compound 96] cannot be ordered by IC50: over 500 nM for the first, over 500 nM for the second.

`C[C@@H](c1ccc(C#N)cc1)N(C)C(=O)[C@H]1CC[C@H]2[C@@H]3CC[C@@H]4C[C@@](O)(C(F)(F)F)CC[C@@H]4[C@H]3CC[C@]12C` [Compound 70] and `C[C@H](c1ccc(C#N)cc1)N(C)C(=O)[C@H]1CC[C@H]2[C@@H]3CC[C@@H]4C[C@@](O)(C(F)(F)F)CC[C@@H]4[C@H]3CC[C@]12C` [Compound 69] fall in the same range of IC50: 100 to 500 nM for the first, 100 to 500 nM for the second.

Compared with `CN(CC(=O)[C@H]1CC[C@H]2[C@@H]3CC[C@@H]4C[C@](C)(O)CC[C@@H]4[C@H]3CC[C@]12C)c1ccccc1` [Compound 39], `CCOC[C@@]1(O)CC[C@H]2[C@H](CC[C@@H]3[C@@H]2CC[C@]2(C)[C@@H](C(=O)CN(C)c4ccccc4)CC[C@@H]32)C1` [Compound 83] is higher in IC50: 50 to 100 nM for the first, 100 to 500 nM for the second.

First: C[C@@]1(O)CC[C@H]2[C@@H](CC[C@@H]3[C@@H]2CC[C@@]2(C)[C@H]3CCC2(O)c2ccccc2)C1 (stereo in doubt) [Compound 100]
Second: C[C@@]1(O)CC[C@H]2[C@H](CC[C@@H]3[C@@H]2CC[C@]2(C)[C@@H](C(=O)Nc4ccccc4)CC[C@@H]32)C1 [Compound 3]
The IC50 of the first is higher: over 500 nM for the first, under 10 nM for the second.

First: C[C@@]1(O)CC[C@H]2[C@H](CC[C@@H]3[C@@H]2CC[C@]2(C)[C@@H](c4ccc(C#N)cc4)CC[C@@H]32)C1 [Compound 110]
Second: Cc1ccc([C@H]2CC[C@H]3[C@@H]4CC[C@@H]5C[C@](C)(O)CC[C@@H]5[C@H]4CC[C@]23C)cc1 [Compound 102]
The IC50 of the first is lower: 10 to 50 nM for the first, 100 to 500 nM for the second.

First: COC(=O)N(C)[C@H]1CC[C@H]2[C@@H]3CC[C@H]4C[C@](C)(O)CC[C@]4(C)[C@H]3CC[C@]12C [Compound 99]
Second: C[C@H]1CCCCN1C(=O)[C@H]1CC[C@H]2[C@@H]3CC[C@@H]4C[C@](C)(O)CC[C@@H]4[C@H]3CC[C@]12C [Compound 28]
The IC50 of the first is higher: over 500 nM for the first, 100 to 500 nM for the second. The second is the more potent here.

`C[C@@]1(O)CC[C@H]2[C@H](CC[C@@H]3[C@@H]2CC[C@]2(C)[C@@H](C(=O)Nc4ccc(F)cc4C#N)CC[C@@H]32)C1` [Compound 37] was tested, and the IC50 was 10 to 50 nM.
